Consider 18 compounds from patent US11596639B2, “Substituted indole Mcl-1 inhibitors” (Vanderbilt University, priority 2016, dated 2023).

Broadly, the Ki is the dissociation constant of the complex between target and ligand, obtained from inhibition or displacement.

Where two headings read alike, the source gives them in different places.

For assay [1], the system named is H929 human cancer cell lines. Kind of assay: Cellular viability / proliferation (Cell TiterGlo, 72 h). The assay is classed as cell-based. The essentials:
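Compounds were added as 2-fold serial dilutions from 50 μM (final DMSO <1%) to H929 cells seeded 1,000 per well in 10% FBS medium one day earlier.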
On the technique in general: Cellular ATP, detected with luciferase, serves as a proxy for viable cell number.

In a further assay the target is Mcl-1 (Homo sapiens (Human), UniProt Q07820). In words: Fluorescence polarization anisotropy (FPA) competition assay, FITC-Bak or FITC-Bim BH3 peptide. It is filed as binding. As to conditions: read-out: Ki for Inhibition of Mcl-1 by FPA assay. (In fluorescence polarisation assays a small probe gives low polarisation when free and higher when bound to something large.)

The mark [2] stands for this setting: Homo sapiens, NCI-H929, 72 h, read-out: GI50 on cellular proliferation of H929 human cancer cell lines, H929 cells, 72 h, Cell TiterGlo, 10% FBS.
[3] abbreviates: H929 cells, 72 h, Cell TiterGlo, 10% FBS, read-out: GI50 on cellular proliferation of H929 human cancer cell lines.

Mcl-1, sequence (Q07820 172-327): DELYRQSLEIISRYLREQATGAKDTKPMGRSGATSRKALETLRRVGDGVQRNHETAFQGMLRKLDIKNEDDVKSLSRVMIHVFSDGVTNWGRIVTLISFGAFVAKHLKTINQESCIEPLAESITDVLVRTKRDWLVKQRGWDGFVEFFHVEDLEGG

Turning to `Cc1cc(OCCCc2c3n(c4c(-c5c(C)nn(C)c5C)c(Cl)ccc24)[C@H](C)CN(c2cccc4c(Cl)cc(C(=O)O)nc24)C3=O)cc(C)c1Cl` [Example 230, (R)-4-Chloro-8-(7-chloro-10-(3-(4-chloro-3,5-dimethylphenoxy)propyl)-4-methyl-1-oxo-6-(1,3,5-trimethyl-1H-pyrazol-4-yl)-3,4-dihydropyrazino[1,2-a]indol-2(1H)-yl)quinoline-2-carboxylic acid], the GI50 in assay [1] (setting [2]) worked out at 890 nM. Besides, at Mcl-1, the Ki was less than 1 nM.

As to `Cc1cc(OCCCc2c3n(c4c(-c5c(C)nn(C)c5C)c(Cl)ccc24)[C@H](C)CN(c2cccc4c2C(=O)CC4)C3=O)cc(C)c1Cl` [Example 195, (R)-7-Chloro-10-(3-(4-chloro-3,5-dimethylphenoxy)propyl)-4-methyl-2-(3-oxo-2,3-dihydro-1H-inden-4-yl)-6-(1,3,5-trimethyl-1H-pyrazol-4-yl)-3,4-dihydropyrazino[1,2-a]indol-1(2H)-one], the GI50 in assay [1] (setting [2]) came to 1800 nM. Moreover, the inhibitory constant (Ki) on Mcl-1 turned out to be 3.6 nM.

As to `CC(=O)Nc1ccc2c(c1)c(N1C[C@@H](C)n3c(c(CCCOc4cc(C)c(Cl)c(C)c4)c4ccc(Cl)c(-c5c(C)nn(C)c5C)c43)C1=O)cn2C` [Example 257, N-[3-[(4R)-7-chloro-10-[3-(4-chloro-3,5-dimethyl-phenoxy)propyl]-4-methyl-1-oxo-6-(1,3,5-trimethylpyrazol-4-yl)-3,4-dihydropyrazino[1,2-a]indol-2-yl]-1-methyl-indol-5-yl]acetamide], the GI50 in assay [1] (setting [2]) amounted to 470 nM. In addition, at Mcl-1, the Ki is 2.3 nM.

As to `Cc1cc(OCCCc2c3n(c4c(-c5c(C)nn(C)c5C)c(Cl)ccc24)[C@H](C)CN(c2cccc4c2c(C(=O)O)nn4C)C3=O)cc(C)c1Cl` [Example 125, 4-[(4R)-7-chloro-10-[3-(4-chloro-3,5-dimethyl-phenoxy)propyl]-4-methyl-1-oxo-6-(1,3,5-trimethylpyrazol-4-yl)-3,4-dihydropyrazino[1,2-a]indol-2-yl]-1-methyl-indazole-3-carboxylic acid], in assay [1] (setting [2]), the GI50 is 7600 nM. Moreover, the inhibitory constant (Ki) on Mcl-1 was less than 1 nM.

`Cc1cc(OCCCc2c3n(c4c(-c5c(C)nn(C)c5C)c(Cl)ccc24)[C@H](C)CN(c2cccc4cc(C#N)n(C)c24)C3=O)cc(C)c1Cl` [Example 300, 7-[(4R)-7-chloro-10-[3-(4-chloro-3,5-dimethyl-phenoxy)propyl]-4-methyl-1-oxo-6-(1,3,5-trimethylpyrazol-4-yl)-3,4-dihydropyrazino[1,2-a]indol-2-yl]-1-methyl-indole-2-carbonitrile]: in assay [1] (setting [2]), the GI50 was found to be 5900 nM. Also, on Mcl-1, the Ki was 2 nM.

For the compound `Cc1cc(OCCCc2c3n(c4c(-c5c(C)nn(C)c5C)c(Cl)ccc24)[C@H](C)CN(c2ccc4c(c2)cc(C(=O)O)n4C)C3=O)cc(C)c1Cl` [Example 114, (R)-5-(7-Chloro-10-(3-(4-chloro-3,5-dimethylphenoxy)propyl)-4-methyl-1-oxo-6-(1,3,5-trimethyl-1H-pyrazol-4-yl)-3,4-dihydropyrazino[1,2-a]indol-2(1H)-yl)-1-methyl-1H-indole-2-carboxylic acid], the GI50 in assay [1] (setting [2]) amounted to 840 nM. The inhibition constant Ki at Mcl-1 is less than 1 nM.

As for `Cc1cc(OCCCc2c3n(c4c(-c5c(C)nn(C)c5C)c(Cl)ccc24)[C@H](C)CN(c2cn(C)c4ccc(-c5noc(=O)[nH]5)cc24)C3=O)cc(C)c1Cl` [Example 442, (R)-3-(3-(7-Chloro-10-(3-(4-chloro-3,5-dimethylphenoxy)propyl)-4-methyl-1-oxo-6-(1,3,5-trimethyl-1H-pyrazol-4-yl)-3,4-dihydropyrazino[1,2-a]indol-2(1H)-yl)-1-methyl-1H-indol-5-yl)-1,2,4-oxadiazol-5(4H)-one], the GI50 in assay [1] (setting [2]) stood at 230 nM. Further, at Mcl-1, the Ki came to 2.3 nM.

On to `Cc1cc(OCCCc2c3n(c4c(-c5c(C)nn(C)c5C)c(Cl)ccc24)[C@H](C)CN(c2cc(O)cc4c2cc(C(=O)O)n4C)C3=O)cc(C)c1Cl` [Example 305, (M, R)-4-(7-chloro-10-(3-(4-chloro-3,5-dimethylphenoxy)propyl)-4-methyl-1-oxo-6-(1,3,5-trimethyl-1H-pyrazol-4-yl)-3,4-dihydropyrazino[1,2-a]indol-2(1H)-yl)-6-hydroxy-1-methyl-1H-indole-2-carboxylic acid], for which the GI50 in assay [1] (setting [3]) was 6200 nM. Also, the Ki on Mcl-1 is less than 1 nM.

On to `Cc1cc(OCCCc2c3n(c4c(-c5c(C)nn(C)c5C)c(Cl)ccc24)[C@H](C)CN(c2cccc4cc(C(=O)O)n(Cc5cscn5)c24)C3=O)cc(C)c1Cl` [Example 304, 7-[(4R)-7-chloro-10-[3-(4-chloro-3,5-dimethyl-phenoxy)propyl]-4-methyl-1-oxo-6-(1,3,5-trimethylpyrazol-4-yl)-3,4-dihydropyrazino[1,2-a]indol-2-yl]-1-(thiazol-4-ylmethyl)indole-2-carboxylic acid], for which the GI50 in assay [1] (setting [2]) was determined as 370 nM. Besides, the inhibition constant (Ki) on Mcl-1 was less than 1 nM.

For `Cc1cc(OCCCc2c3n(c4c(-c5c(C)nn(C)c5C)c(Cl)ccc24)[C@H](C)CN(c2cccc4c(C(=O)O)cccc24)C3=O)cc(C)c1Cl` [Example 63, (R)-5-(7-Chloro-10-(3-(4-chloro-3,5-dimethylphenoxy)propyl)-4-methyl-1-oxo-6-(1,3,5-trimethyl-1H-pyrazol-4-yl)-3,4-dihydropyrazino[1,2-a]indol-2(1H)-yl)-1-naphthoic acid], in assay [1] (setting [2]), the GI50 worked out at 270 nM. For the same compound, the Ki at Mcl-1 was less than 1 nM.

Take `Cc1cc(OCCCc2c3n(c4c(-c5c(C)nn(C)c5C)c(Cl)ccc24)[C@H](C)CN(c2cc4c(C(=O)O)cccc4n2C)C3=O)cc(C)c1Cl` [Example 170, 2-[(4R)-7-chloro-10-[3-(4-chloro-3,5-dimethyl-phenoxy)propyl]-4-methyl-1-oxo-6-(1,3,5-trimethylpyrazol-4-yl)-3,4-dihydropyrazino[1,2-a]indol-2-yl]-1-methyl-indole-4-carboxylic acid]: the GI50 in assay [1] (setting [2]) came out at 2600 nM. Besides, on Mcl-1, the Ki came out at 2.7 nM.

Turning to `Cc1cc(OCCCc2c3n(c4c(-c5c(C)nn(C)c5C)c(Cl)ccc24)[C@H](C)CN(c2cn(C)c4cc(F)c(C(=O)O)cc24)C3=O)cc(C)c1Cl` [Example 355, (M, R)-3-(7-Chloro-10-(3-(4-chloro-3,5-dimethylphenoxy)propyl)-4-methyl-1-oxo-6-(1,3,5-trimethyl-1H-pyrazol-4-yl)-3,4-dihydropyrazino[1,2-a]indol-2(1H)-yl)-6-fluoro-1-methyl-1H-indole-5-carboxylic acid], the GI50 in assay [1] (setting [3]) came to 730 nM. The inhibition constant Ki on Mcl-1 amounted to 1 nM.

Turning to `Cc1cc(OCCCc2c3n(c4c(-c5c(C)nc(CN6CCC(O)C6)nc5C)c(Cl)ccc24)[C@H](C)CN(c2cn(C)c4ccc(C(=O)O)cc24)C3=O)cc(C)c1Cl` (stereo partly drawn) [Example 397, 3-((4R)-7-Chloro-10-(3-(4-chloro-3,5-dimethylphenoxy)propyl)-6-(2-((3-hydroxypyrrolidin-1-yl)methyl)-4,6-dimethylpyrimidin-5-yl)-4-methyl-1-oxo-3,4-dihydropyrazino[1,2-a]indol-2(1H)-yl)-1-methyl-1H-indole-5-carboxylic acid], the GI50 in assay [1] (setting [2]) stood at 340 nM. Also, the inhibitory constant (Ki) on Mcl-1 was found to be 1.2 nM.

Regarding `Cc1cc(OCCCc2c3n(c4c(-c5c(C)nc(CN(C)C)nc5C)c(Cl)ccc24)[C@H](C)CN(c2cn(C)c4ccc(C(=O)O)cc24)C3=O)cc(C)c1Cl` [Example 451, (R)-3-(7-Chloro-10-(3-(4-chloro-3,5-dimethylphenoxy)propyl)-6-(2-((dimethylamino)methyl)-4,6-dimethylpyrimidin-5-yl)-4-methyl-1-oxo-3,4-dihydropyrazino[1,2-a]indol-2(1H)-yl)-1-methyl-1H-indole-5-carboxylic acid], in assay [1] (setting [2]), the GI50 is less than 200 nM. Moreover, the inhibition constant (Ki) on Mcl-1 was less than 1 nM.

Turning to `Cc1cc(OCCCc2c3n(c4c(-c5c(C)nn(C)c5C)c(Cl)ccc24)[C@H](C)CN(c2cccc4cc(C(=O)O)n(CC5(C)COC5)c24)C3=O)cc(C)c1Cl` [Example 380, (R)-7-(7-chloro-10-(3-(4-chloro-3,5-dimethylphenoxy)propyl)-4-methyl-1-oxo-6-(1,3,5-trimethyl-1H-pyrazol-4-yl)-3,4-dihydropyrazino[1,2-a]indol-2(1H)-yl)-1-((3-methyloxetan-3-yl)methyl)-1H-indole-2-carboxylic acid], the GI50 in assay [1] (setting [2]) was determined as 2500 nM. Besides, the inhibition constant Ki on Mcl-1 was 7.9 nM.

In the case of `Cc1cc(OCCCc2c3n(c4c(-c5c(C)nn(C)c5C)c(Cl)ccc24)[C@H](C)CN(c2cc(Cl)cc4cc(C(=O)O)oc24)C3=O)cc(C)c1Cl` [Example 259, (R)-5-Chloro-7-(7-chloro-10-(3-(4-chloro-3,5-dimethylphenoxy)propyl)-4-methyl-1-oxo-6-(1,3,5-trimethyl-1H-pyrazol-4-yl)-3,4-dihydropyrazino[1,2-a]indol-2(1H)-yl)benzofuran-2-carboxylic acid], the GI50 in assay [1] (read-out: GI50 on cellular proliferation of H929 human cancer cell lines, H929 cells, 72 h, Cell TiterGlo, 10% FBS) amounted to 3500 nM. The Ki on Mcl-1 is less than 1 nM.

On to `Cc1cc(OCCCc2c3n(c4c(-c5c(C)nn(C)c5C)c(Cl)ccc24)[C@H](C)CN(c2cn(C)c4ccc(C(=O)NCc5cccnc5)cc24)C3=O)cc(C)c1Cl` [Example 287, 3-[(4R)-7-chloro-10-[3-(4-chloro-3,5-dimethyl-phenoxy)propyl]-4-methyl-1-oxo-6-(1,3,5-trimethylpyrazol-4-yl)-3,4-dihydropyrazino[1,2-a]indol-2-yl]-1-methyl-N-(3-pyridylmethyl)indole-5-carboxamide], for which the GI50 in assay [1] (setting [2]) came to 1600 nM. On Mcl-1, the inhibitory constant (Ki) came out at 3 nM.

With `Cc1ccnc(-c2ccc3c(c2)c(N2C[C@@H](C)n4c(c(CCCOc5cc(C)c(Cl)c(C)c5)c5ccc(Cl)c(-c6c(C)nn(C)c6C)c54)C2=O)cn3C)n1` [Example 418, (R)-7-Chloro-10-(3-(4-chloro-3,5-dimethylphenoxy)propyl)-4-methyl-2-(1-methyl-5-(4-methylpyrimidin-2-yl)-1H-indol-3-yl)-6-(1,3,5-trimethyl-1H-pyrazol-4-yl)-3,4-dihydropyrazino[1,2-a]indol-1(2H)-one], the GI50 in assay [1] (setting [2]) was found to be 900 nM. For the same compound, the inhibition constant (Ki) on Mcl-1 was found to be 1.4 nM.
